Data from paper PMC12615753, “Glutathione as a taste modulator: molecular mechanisms of interaction with umami and sweet taste receptors” (Food Chemistry: Molecular Sciences, 2025).

Molecular target: T1, hTAS1R1 H308A/rTAS1R3 (Homo sapiens, UniProt Q7RTX1, H308A)
T1 construct: UniProtKB number Q7RTX1–1); expressed in transfected cells; host or cells: HEK293T/17 (ATCC CRL-11268)
T1 sequence (Q7RTX1 21-841 H308A): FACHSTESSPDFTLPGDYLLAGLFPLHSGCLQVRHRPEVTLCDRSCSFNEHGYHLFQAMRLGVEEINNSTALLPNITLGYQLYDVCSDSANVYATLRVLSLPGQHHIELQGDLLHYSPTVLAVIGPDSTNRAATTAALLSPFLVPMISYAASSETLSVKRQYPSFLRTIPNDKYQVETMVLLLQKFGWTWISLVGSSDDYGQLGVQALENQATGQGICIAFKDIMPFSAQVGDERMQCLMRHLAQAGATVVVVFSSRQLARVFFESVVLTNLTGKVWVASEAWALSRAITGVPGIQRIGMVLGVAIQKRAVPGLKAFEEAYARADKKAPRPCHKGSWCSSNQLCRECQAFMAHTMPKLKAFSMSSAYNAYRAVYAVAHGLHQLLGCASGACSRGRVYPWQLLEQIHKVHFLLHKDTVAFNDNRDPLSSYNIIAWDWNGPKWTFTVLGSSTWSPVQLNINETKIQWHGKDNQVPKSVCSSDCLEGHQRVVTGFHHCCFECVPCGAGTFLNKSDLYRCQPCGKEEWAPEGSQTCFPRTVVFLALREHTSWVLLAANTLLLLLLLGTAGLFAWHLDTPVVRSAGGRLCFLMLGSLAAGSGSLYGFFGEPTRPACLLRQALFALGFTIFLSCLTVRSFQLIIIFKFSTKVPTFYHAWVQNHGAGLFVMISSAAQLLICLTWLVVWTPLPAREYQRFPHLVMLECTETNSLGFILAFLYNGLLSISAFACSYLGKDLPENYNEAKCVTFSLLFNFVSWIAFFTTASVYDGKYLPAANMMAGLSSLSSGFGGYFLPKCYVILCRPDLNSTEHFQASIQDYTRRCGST
T1 sequence (Q923K1 21-858 partner): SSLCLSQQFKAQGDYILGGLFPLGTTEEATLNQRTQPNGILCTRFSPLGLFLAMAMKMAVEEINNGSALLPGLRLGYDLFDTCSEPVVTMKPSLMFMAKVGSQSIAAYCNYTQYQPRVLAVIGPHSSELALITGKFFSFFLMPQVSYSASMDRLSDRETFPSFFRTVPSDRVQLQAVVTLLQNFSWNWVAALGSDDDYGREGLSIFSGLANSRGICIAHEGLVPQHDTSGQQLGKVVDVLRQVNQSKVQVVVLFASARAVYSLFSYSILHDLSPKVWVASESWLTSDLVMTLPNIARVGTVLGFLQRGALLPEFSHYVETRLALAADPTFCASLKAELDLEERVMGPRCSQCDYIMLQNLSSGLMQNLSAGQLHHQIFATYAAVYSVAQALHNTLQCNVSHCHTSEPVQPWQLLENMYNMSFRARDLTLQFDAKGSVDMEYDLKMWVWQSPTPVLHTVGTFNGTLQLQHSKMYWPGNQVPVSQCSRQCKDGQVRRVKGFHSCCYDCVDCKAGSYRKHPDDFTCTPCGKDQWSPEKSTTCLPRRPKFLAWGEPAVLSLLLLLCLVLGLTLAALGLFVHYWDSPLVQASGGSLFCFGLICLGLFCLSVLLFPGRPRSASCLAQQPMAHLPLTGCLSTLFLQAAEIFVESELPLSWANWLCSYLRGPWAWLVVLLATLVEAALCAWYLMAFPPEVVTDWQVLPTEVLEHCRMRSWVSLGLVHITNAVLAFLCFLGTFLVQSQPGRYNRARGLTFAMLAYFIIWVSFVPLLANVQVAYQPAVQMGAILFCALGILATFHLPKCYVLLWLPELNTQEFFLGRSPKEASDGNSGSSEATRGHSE
Experiment: Calcium assay, hTAS1R1 mutant co-expressed with rTAS1R3
Format: cell-based, rat
Excerpt: Chimeric Gα proteins, such as Gα16Gust44, Gα16Gi3 or Gα15i2, are widely used in the functional expression of TAS1R receptors ([Backes et al., 2015]; [Suess et al., 2015]; [Toda et al., 2021], [Toda et al., 2013], [Toda et al., 2018]; [Zhang et al., 2008]). Chimeric Gα15i2 (([Toda et al., 2013]), Supplementary data) was generated by replacing the last five residues of the C-terminal tail of rat Gα15i2 (EINLL) (UniProt number G3V6N8; https://www.uniprot.org/uniprot/) with the counterpart sequence from human GNAI2 (DCGLF) (UniProt number P04899-1) and cloning into the pcDNA3.1/Hygro vector (Invitrogen, Thermo Fisher Scientific, Illkirch, France) between the HindIII and NotI restriction sites, resulting in the plasmid pcDNA3.1-Gα15i2. Chimeric Gα16Gust44 construct have already been reported ([Raliou et al., 2011]). Briefly, Gα16Gust44 was generated by replacing the C-terminal of Gα16 with the C-terminal 44 residues of gustducin. As previously described, hTAS1R1 was amplified from human fungiform papillae cDNA and cloned and inserted into pcDNA3 (Invitrogen), generating pcDNA3-TAS1R1-WT (wild-type) ([Raliou et al., 2011]). […] The cDNA coding region of rTAS1R3 was synthesized with optimized-codon usage for human expression (Genewiz) and was cloned and inserted into the mammalian pcDNA4/myc-HisA (Invitrogen) expression vector between the EcoRI and NotI restriction sites, resulting in the plasmid pcDNA4-rTAS1R3. […] The sequence integrity of all the plasmid constructs was verified via automated DNA sequencing (Genewiz).
The hTAS1R1 mutants were co-expressed with the rTAS1R3 subunit in HEK293 cells. […] As a control, the functionality of the mutated receptors was checked after stimulation with S807 (Fig. S8), which interacts with TAS1R1-TMD ([Zhang et al., 2008]).

| Structure (SMILES) | EC50 [mM] | effect of the added compound (1 mM) on the response to L-Glu (H308A) | Max ∆F/F0 (H308A, GSH) | R1 = mutant EC50/WT EC50 (H308A, GSH) | response to the agonist alone, vs WT (H308A) |
| --- | --- | --- | --- | --- | --- |
| N[C@@H](CCC(=O)N[C@@H](CS)C(=O)NCC(=O)O)C(=O)O [GSH, γ-L-glutamyl-L-cysteinyl-glycine] | 3.25 ± 0.225 | synergy was observed | 0.42 ± 0.01 | 1.3 | – |
| CCCC(CCC)NC(=O)c1ccc2c(c1)OCO2 [S807, N-(heptan-4-yl)benzo[d][1,3]dioxole-5-carboxamide, reference compound] | – | – | – | – | strongly affected |
